Tests used:
bedstraw = experiment: Test B pre/postemergence bedstraw; type: in vivo, Galium aparine
In short: (§1)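 Herbicidal effect was estimated by eye on a ten-point control scale after plants spent twelve to sixteen days in a greenhouse following soil or foliar treatment. Foliar sprays targeted plants at one to four leaves; all doses were formulated in a non-phytotoxic solvent with surfactant.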

cocklebur = experiment: Test B pre/postemergence cocklebur; type: in vivo, Xanthium strumarium
In short: as §1

corn = experiment: Test B pre/postemergence corn; type: in vivo, Zea mays
In short: as §1

crabgrass = experiment: Test B pre/postemergence crabgrass; type: in vivo, Digitaria sanguinalis
In short: as §1

giant foxtail = experiment: Test B pre/postemergence giant foxtail; type: in vivo, Setaria faberii
In short: as §1

morningglory = experiment: Test B pre/postemergence morningglory; type: in vivo, Ipomoea hederacea
In short: as §1

pigweed = experiment: Test B pre/postemergence pigweed; type: in vivo, Amaranthus retroflexus
In short: as §1

rape = experiment: Test B pre/postemergence rape; type: in vivo, Brassica napus
In short: as §1

soybean = experiment: Test B pre/postemergence soybean; type: in vivo, Glycine max
In short: as §1

velvetleaf = experiment: Test B pre/postemergence velvetleaf; type: in vivo, Abutilon theophrasti
In short: as §1

wheat = experiment: Test B pre/postemergence wheat; type: in vivo, Triticum aestivum
In short: as §1

wild oat = experiment: Test B pre/postemergence wild oat; type: in vivo, Avena fatua
In short: as §1

purple nutsedge = experiment: Test B pre/postemergence purple nutsedge; type: in vivo, Cyperus rotundus; conditions: Postemergence
In short: as §1

rice = experiment: Test B flood test rice; type: in vivo, Oryza sativa
In short: (§2)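 Each value is a visual injury score relative to controls, with 10 meaning complete control and 0 no effect. Evaluation took place twelve to sixteen days after the 2-leaf-stage plants were treated and kept in the greenhouse.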

smallflower flatsedge = experiment: Test B flood test smallflower flatsedge; type: in vivo, Cyperus difformis
In short: as §2

duck salad = experiment: Test B flood test duck salad; type: in vivo, Heteranthera limosa
In short: as §2

[1] = Preemergence, Rate 62 g/ha, scale of 0 to 10 where 0 is no effect and 10 is complete control
[2] = Preemergence, Rate 250 g/ha, scale of 0 to 10 where 0 is no effect and 10 is complete control
[3] = Preemergence, Rate 500 g/ha, scale of 0 to 10 where 0 is no effect and 10 is complete control
[4] = Rate 62 g/ha, Postemergence, scale of 0 to 10 where 0 is no effect and 10 is complete control
[5] = Rate 125 g/ha, Postemergence, scale 0 to 10
[6] = Rate 125 g/ha, Preemergence, scale of 0 to 10 where 0 is no effect and 10 is complete control
[7] = Rate 500 g/ha, Postemergence, scale 0 to 10, 0 no effect, 10 complete control
[8] = Rate 62 g/ha, headed Pre-emergence (flood test species), scale 0 to 10 (0 no effect, 10 complete control)
[9] = Rate 125 g/ha, Pre-emergence, flood test species, scale 0 to 10 where 0 is no effect and 10 is complete control
[10] = Rate 250 g/ha, Pre-emergence, flood-test species, scale 0 to 10, 0 is no effect, 10 is complete control
[11] = Rate 500 g/ha, Pre-emergence, flood test species, scale 0 to 10 (0 no effect, 10 complete control)

## CC(C)N(C(=O)n1oc(=O)n(CCC2OCCO2)c1=O)c1ccc(F)cc1 [Compound 219]
bedstraw; [1]
  Bedstraw plant response rating: 1
bedstraw; [2]
  Bedstraw plant response rating: 8
bedstraw; [3]
  Plant response rating, Bedstraw: 9
bedstraw; [4]
  Bedstraw plant response rating: 6
bedstraw; [5]
  Bedstraw plant response rating: 6
bedstraw; [6]
  Bedstraw plant response rating: 5
bedstraw; Rate 250 g/ha, Postemergence
  Plant response rating (0 to 10; 0 is no effect, 10 is complete control), Bedstraw: 8
bedstraw; [7]
  Bedstraw plant response rating: 8
cocklebur; [1]
  Cocklebur plant response rating: 0
cocklebur; [2]
  Cocklebur plant response rating: 0
cocklebur; [3]
  Plant response rating, Cocklebur: 0
cocklebur; [4]
  Cocklebur plant response rating: 1
cocklebur; [5]
  Cocklebur plant response rating: 1
cocklebur; [6]
  Cocklebur plant response rating: 0
cocklebur; Rate 250 g/ha, Postemergence
  Plant response rating (0 to 10; 0 is no effect, 10 is complete control), Cocklebur: 4
cocklebur; [7]
  Cocklebur plant response rating: 4
corn; [1]
  Corn plant response rating: 0
corn; [2]
  Corn plant response rating: 5
corn; [3]
  Plant response rating, Corn: 7
corn; [4]
  Corn plant response rating: 0
corn; [5]
  Corn plant response rating: 0
corn; [6]
  Corn plant response rating: 0
corn; Rate 250 g/ha, Postemergence
  Plant response rating (0 to 10; 0 is no effect, 10 is complete control), Corn: 4
corn; [7]
  Corn plant response rating: 5
crabgrass; [1]
  Crabgrass plant response rating: 5
crabgrass; [2]
  Crabgrass plant response rating: 9
crabgrass; [3]
  Plant response rating, Crabgrass: 10
crabgrass; [4]
  Crabgrass plant response rating: 3
crabgrass; [5]
  Crabgrass plant response rating: 4
crabgrass; [6]
  Crabgrass plant response rating: 8
crabgrass; Rate 250 g/ha, Postemergence
  Plant response rating (0 to 10; 0 is no effect, 10 is complete control), Crabgrass: 6
crabgrass; [7]
  Crabgrass plant response rating: 8
Giant foxtail; [1]
  Giant foxtail plant response rating: 10
Giant foxtail; [2]
  Giant foxtail plant response rating: 10
Giant foxtail; [3]
  Plant response rating, Giant foxtail: 10
Giant foxtail; [4]
  Giant foxtail plant response rating: 6
Giant foxtail; [5]
  Giant foxtail plant response rating: 7
Giant foxtail; [6]
  Giant foxtail plant response rating: 10
Giant foxtail; Rate 250 g/ha, Postemergence
  Plant response rating (0 to 10; 0 is no effect, 10 is complete control), Giant foxtail: 8
Giant foxtail; [7]
  Giant foxtail plant response rating: 9
morningglory; [1]
  Morningglory plant response rating: 0
morningglory; [2]
  Morningglory plant response rating: 0
morningglory; [3]
  Plant response rating, Morningglory: 1
morningglory; [4]
  Morningglory plant response rating: 6
morningglory; [5]
  Morningglory plant response rating: 6
morningglory; [6]
  Morningglory plant response rating: 0
morningglory; Rate 250 g/ha, Postemergence
  Plant response rating (0 to 10; 0 is no effect, 10 is complete control), Morningglory: 7
morningglory; [7]
  Morningglory plant response rating: 7
pigweed; [1]
  Redroot pigweed plant response rating: 0
pigweed; [2]
  Redroot pigweed plant response rating: 9
pigweed; [3]
  Plant response rating, Redroot pigweed: 10
pigweed; [4]
  Redroot pigweed plant response rating: 5
pigweed; [5]
  Redroot pigweed plant response rating: 7
pigweed; [6]
  Redroot pigweed plant response rating: 4
pigweed; Rate 250 g/ha, Postemergence
  Plant response rating (0 to 10; 0 is no effect, 10 is complete control), Redroot pigweed: 8
pigweed; [7]
  Redroot pigweed plant response rating: 8
rape; [1]
  Rape plant response rating: 0
rape; [2]
  Rape plant response rating: 6
rape; [3]
  Plant response rating, Rape: 10
rape; [4]
  Rape plant response rating: 2
rape; [5]
  Rape plant response rating: 3
rape; [6]
  Rape plant response rating: 0
rape; Rate 250 g/ha, Postemergence
  Plant response rating (0 to 10; 0 is no effect, 10 is complete control), Rape: 7
rape; [7]
  Rape plant response rating: 7
soybean; [1]
  Soybean plant response rating: 0
soybean; [2]
  Soybean plant response rating: 0
soybean; [3]
  Plant response rating, Soybean: 0
soybean; [4]
  Soybean plant response rating: 5
soybean; [5]
  Soybean plant response rating: 5
soybean; [6]
  Soybean plant response rating: 0
soybean; Rate 250 g/ha, Postemergence
  Plant response rating (0 to 10; 0 is no effect, 10 is complete control), Soybean: 7
soybean; [7]
  Soybean plant response rating: 7
velvetleaf; [1]
  Velvetleaf plant response rating: 3
velvetleaf; [2]
  Velvetleaf plant response rating: 7
velvetleaf; [3]
  Plant response rating, Velvetleaf: 10
velvetleaf; [4]
  Velvetleaf plant response rating: 0
velvetleaf; [5]
  Velvetleaf plant response rating: 0
velvetleaf; [6]
  Velvetleaf plant response rating: 6
velvetleaf; Rate 250 g/ha, Postemergence
  Plant response rating (0 to 10; 0 is no effect, 10 is complete control), Velvetleaf: 2
velvetleaf; [7]
  Velvetleaf plant response rating: 4
wheat; [1]
  Wheat plant response rating: 3
wheat; [2]
  Wheat plant response rating: 8
wheat; [3]
  Plant response rating, Wheat: 9
wheat; [4]
  Wheat plant response rating: 5
wheat; [5]
  Wheat plant response rating: 6
wheat; [6]
  Wheat plant response rating: 5
wheat; Rate 250 g/ha, Postemergence
  Plant response rating (0 to 10; 0 is no effect, 10 is complete control), Wheat: 7
wheat; [7]
  Wheat plant response rating: 7
Wild oat; [1]
  Wild oats plant response rating: 2
Wild oat; [2]
  Wild oats plant response rating: 8
Wild oat; [3]
  Plant response rating, Wild oats: 9
Wild oat; [4]
  Wild oats plant response rating: 1
Wild oat; [5]
  Wild oats plant response rating: 3
Wild oat; [6]
  Wild oats plant response rating: 5
Wild oat; Rate 250 g/ha, Postemergence
  Plant response rating (0 to 10; 0 is no effect, 10 is complete control), Wild oats: 4
Wild oat; [7]
  Wild oats plant response rating: 6
Purple nutsedge; Rate 62 g/ha, scale of 0 to 10 where 0 is no effect and 10 is complete control
  Nutsedge plant response rating: 0
Purple nutsedge; Rate 125 g/ha, scale 0 to 10
  Nutsedge plant response rating: 0
Purple nutsedge; Rate 250 g/ha
  Plant response rating (0 to 10; 0 is no effect, 10 is complete control), Nutsedge: 0
Purple nutsedge; Rate 500 g/ha, scale 0 to 10, 0 no effect, 10 complete control
  Nutsedge plant response rating: 0
rice; [8]
  Rice plant response rating: 0
rice; [9]
  Rice plant response rating: 0
rice; [10]
  Rice plant response rating: 0
rice; [11]
  Rice plant response rating: 6
Smallflower flatsedge; [8]
  S. Flatsedge plant response rating: 0
Smallflower flatsedge; [9]
  S. Flatsedge plant response rating: 0
Smallflower flatsedge; [10]
  S. Flatsedge plant response rating: 0
Smallflower flatsedge; [11]
  S. Flatsedge plant response rating: 4
Duck salad; [8]
  Ducksalad plant response rating: 0
Duck salad; [9]
  Ducksalad plant response rating: 0
Duck salad; [10]
  Ducksalad plant response rating: 0
Duck salad; [11]
  Ducksalad plant response rating: 3
